# Publication PMC7167990, “Therapeutic Effects of Atranorin towards the Proliferation of Babesia and Theileria Parasites” (Pathogens, 2020)
# Values joined by “and” are separate entries in the source; they are usually repeats but may differ in a detail not shown here. Equal entries are not always repeated. Where two headings read alike, the source gives them in different places.
# Tests used:
# NIH/3T3 cells = assay: Cytotoxicity assay (CCK-8 cell viability); type: cell-based, mouse; conditions: for EC50: read-out: EC50 NIH/3T3
# Protocol: (§1) Cultures of human foreskin fibroblast (HFF; HFF-1 ATCC® SCRC-1041™), Madin–Darby bovine kidney (MDBK; ECACC) and mouse embryonic fibroblast (NIH/3T3; ATCC® CRL-1658™) cells were retrieved from −80 °C stock and cultured continuously at 37 °C under atmosphere 5% CO2 in our laboratory. The NIH/3T3 and HFFs cells were maintained in Dulbecco Modified Eagle’s Medium (DMEM; Gibco, Grand Island, NY, USA), while MDBK cell line grown in Minimum Essential Medium Eagle (MEM; Gibco). Each medium was treated with 0.5% penicillin/streptomycin (Gibco), 10% inactivated fetal bovine serum and 2 mM glutamine. Every 72 to 96 h, the medium was replaced, and once 80% confluence was reached, the cell collection was performed by sub-culture protocol. To confirm the absence of mycoplasma contamination, 4,6-diamidino-2-phenylindole dihydrochloride stain (Sigma-Aldrich) was used.
# (§2) The cell viability test was conducted in a 96-well plate as described elsewhere. Briefly, an aliquot of (100 µL) cells was implanted at a concentration of 5 × 10^4 cells/mL in DMEM or MEM with fetal bovine serum and incubated overnight under atmosphere 5% CO2 at 37 °C for attachment. Using two-fold dilutions, aliquots (10 µL) of drugs were added in triplicate per well to attain final concentrations of 50 to 1000 µM and further incubated for 24 h. The positive control wells containing cells mixed with the medium in 0.4% DMSO, whereas the negative control wells containing culture medium only. After a 24-h incubation, Cell Counting Kits-8 (CCK-8, 10 µL) was added to each well and then plate incubation was conducted for an additional 3 h and a microplate reader was used to assess the absorbance at 450 nm.
# B. bovis = assay: In vitro growth inhibition, Babesia fluorescent (SYBR Green I) assay; type: cell-based; conditions: 4 days culture, mean of triplicate experiments
# Protocol: (§3) Babesia parasite was incubated and maintained at 37 °C in a humidifying chamber under 5% CO2, 5% O2, and 90% N2 atmosphere using a microaerophilic stationary-phase culture for conducting the in vitro experiment. Briefly, Germany strain Babesia divergens was cultured in cattle RBCs in Roswell Park Memorial Institute 1640 (RPMI 1640; Sigma-Aldrich, St. Louis, MO, USA) medium replenished with 40% cattle serum, while culture medium 199 (M199; Sigma-Aldrich) was utilized for the Argentina strain B. bigemina and Texas strain B. bovis, and T. equi USDA strain cultured in cattle RBCs supplemented with 40% cattle serum and horse RBCs maintained in hypoxanthine (MP Biomedicals, Santa Ana, CA, USA; final concentration 13.6 μg/mL) and 40% horse serum, respectively. GIT medium complemented with 40% horse serum was used as a growth medium for the USDA strain of B. caballi cultured in horse RBCs. To ensure free-bacterial contamination, amphotericin B (0.15 μg/mL) (Sigma-Aldrich), streptomycin (60 U/mL) and penicillin G (60 U/mL) were added to all medium.
# (§4) The Babesia fluorescent assay was carried out on the in vitro culture as previously reported elsewhere to assess the growth of the inhibitory effectiveness of ATR and the combination treatment with DA, CF, and AV. Briefly, in three separate trials, using two-fold dilution, different concentrations of ATR, DA, CF, and AV were prepared in the culture medium and added in 96-well plates in triplicate with 1% parasitemia for T. equi, B. divergens and B. caballi at 5% HCT, while for B. bigemina and B. bovis using 2.5% HCT. The drug combined efficacy was conducted at the same time with the single-treatment assay in accordance with the Chou–Talalay method. […] On day four of culture, an aliquot (100 µL) of lysis buffer mixed with 0.2μL/mL SG1 was added per well; subsequently, it was covered with aluminum foil to prevent exposure to light. After incubation for 6-h at 37 °C, fluorescence readings were acquired on a spectrofluorimeter (Fluoroskan Ascent, Thermo Fisher Scientific, Oceanside, CA, USA) with a 485 nm excitation wavelength and a 518 nm emission wavelength.
# (§5) The IC50 values of ATR, DA, CF, and AV were established from the in vitro growth inhibition by nonlinear regression curve fit on a GraphPad Prism (GraphPad Software Inc., San Diego, CA, USA). […] The significant variations (p < 0.05) among group mean values on parasitemia and one-way ANOVA Tukey’s test in GraphPad Prism version 5.0 was used to analyze hematology profiles in mice infected with B. microti.
# B. divergens = assay: as above; type: cell-based; conditions: 4 days culture, mean of triplicate experiments
# Protocol: as §3, §4, §5
# B. bigemina = assay: as above; type: cell-based; conditions: 4 days culture, mean of triplicate experiments
# Protocol: as §3, §4, §5
# B. caballi = assay: as above; type: cell-based; conditions: 4 days culture, mean of triplicate experiments
# Protocol: as §3, §4, §5
# T. equi = assay: as above; type: cell-based; conditions: 4 days culture, mean of triplicate experiments
# Protocol: as §3, §4, §5
# HFFs = assay: Cytotoxicity assay (CCK-8 cell viability); type: cell-based, human; conditions: for EC50: HFFs, 24 h, CCK-8
# Protocol: as §1, §2
# B. microti = conditions: for peak parasitemia level: peak on day 10; for peak parasitemia level / first day on which parasitemia was not detected by microscopy: B. microti-infected BALB/c mice; for first day on which parasitemia was not detected by microscopy: DA 25, AV 20, ATR 25, ATR 12.5+DA 12.5, ATR 12.5+AV 10 mg/kg BW
# MDBK cells = assay: Cytotoxicity assay (CCK-8 cell viability); type: cell-based, bovine; conditions: for EC50: MDBK cells, 24 h, CCK-8
# Protocol: as §1, §2
# [1] = EC50 NIH/3T3 / IC50 B. bigemina
# [2] = EC50 NIH/3T3 / IC50 B. divergens
# [3] = ATR 25 mg/kg i.p., days 4-8 p.i.
Structure (SMILES),Selective Index NIH/3T3 (NIH/3T3 cells; [1]),Selective Index NIH/3T3 (NIH/3T3 cells; EC50 NIH/3T3 / IC50 B. bovis),Selective Index NIH/3T3 (NIH/3T3 cells; EC50 NIH/3T3 / IC50 B. caballi),Selective Index NIH/3T3 (NIH/3T3 cells; [2]),Selective Index NIH/3T3 (NIH/3T3 cells; EC50 NIH/3T3 / IC50 T. equi),"IC50 (B. bovis; Bos taurus, 96 h) [µM]",IC50 (B. divergens; 96 h) [µM],IC50 (B. bigemina; 96 h) [µM],"IC50 (B. caballi; Babesia caballi, 96 h) [µM]",Selective Index HFFs (HFFs; EC50 HFFs / IC50 B. bigemina),Selective Index HFFs (HFFs; EC50 HFFs / IC50 B. bovis),Selective Index HFFs (HFFs; EC50 HFFs / IC50 B. caballi),Selective Index HFFs (HFFs; EC50 HFFs / IC50 B. divergens),Selective Index HFFs (HFFs; EC50 HFFs / IC50 T. equi),first day on which parasitemia was not detected by microscopy (B. microti; days 4-8 p.i.) [day p.i.],Selective Index MDBK (MDBK cells; EC50 MDBK / IC50 B. bigemina),Selective Index MDBK (MDBK cells; EC50 MDBK / IC50 B. bovis),Selective Index MDBK (MDBK cells; EC50 MDBK / IC50 B. caballi),Selective Index MDBK (MDBK cells; EC50 MDBK / IC50 B. divergens),Selective Index MDBK (MDBK cells; EC50 MDBK / IC50 T. equi),also measured
"COC(=O)c1c(C)cc(OC(=O)c2c(C)cc(O)c(C=O)c2O)c(C)c1O [ATR, Atranorin]",9.9,6.5,13.7,14.0,9,98.4 ± 4.2,45.2 ± 5.9,64.5 ± 3.9,46.6 ± 2.5,11.6,7.6,16.1,16.6,10.6,26,12.0,7.9,16.6,17.1,10.6 and 10.9,"EC50 (NIH/3T3 cells; Mus musculus, NIH3T3, 24 h): 638 ± 12 µM; IC50 (T. equi; 96 h): 71.3 ± 2.7 µM; EC50 (HFFs; Homo sapiens): 750 ± 15 µM; inhibition of B. microti multiplication in mice (B. microti; [3]): 68.17%; peak parasitemia level (B. microti; [3]): 19.92%; toxic signs in mice due to treatment (B. microti; mouse, in vivo): no obvious toxic signs or promoted anemia; EC50 (MDBK cells; Bos taurus): 775 ± 16 µM"
"CC(=O)NCC(=O)O.CC(=O)NCC(=O)O.N=C(N)c1ccc(N=NNc2ccc(C(=N)N)cc2)cc1 [DA, diminazene aceturate]",˃147.1,˃285.7,˃5000,˃232.5,˃140.8,–,–,–,–,˃147.1,˃285.7,˃5000,˃232.5,˃140.8,16,˃147.1,˃285.7,˃5000,˃232.5,˃140.8,"EC50 (NIH/3T3 cells; NIH/3T3 cells, 24 h, CCK-8): > 100 µM; IC50 (B. bovis): 0.35 ± 0.06 µM; IC50 (B. divergens): 0.43 ± 0.05 µM; IC50 (B. bigemina): 0.68 ± 0.09 µM; IC50 (B. caballi): 0.02 µM; IC50 (T. equi): 0.71 ± 0.05 µM; EC50 (HFFs): > 100 µM; peak parasitemia level (B. microti; DA at 25 mg/kg, days 4-8 p.i.): 7.94%; EC50 (MDBK cells): > 100 µM"
"O=C1C(O)=C([C@H]2CC[C@H](c3ccc(Cl)cc3)CC2)C(=O)c2ccccc21 [AV, atovaquone]",˃142.7,˃2564,˃980.4,˃2631,˃1052,0.04,0.04,0.7 ± 0.04,0.1 ± 0.01,˃142.7,˃2564,˃980.4,˃2631,˃1052,18,˃142.7,˃2564,˃980.4,˃2631,˃1052,"EC50 (NIH/3T3 cells; Mus musculus, NIH3T3, NIH/3T3 cells, 24 h, CCK-8): > 100 µM; IC50 (T. equi; 96 h): 0.09 ± 0.06 µM; EC50 (HFFs; Homo sapiens): > 100 µM; peak parasitemia level (B. microti; AV at 20 mg/kg, days 4-8 p.i.): 10.99%; EC50 (MDBK cells; Bos taurus): > 100 µM"
